Measured values taken from US11117888B2, “Irreversible inhibitors of pyruvate kinase M2 and the use thereof” (China Medical University, priority 2020, dated 2021).
pIC50: −log10 of the molar value.

How the values were obtained:
[1] = test system: MDA-MB-231 breast cancer cells; assay: MTT cell viability assay, MDA-MB-231; format: cell-based; settings: Homo sapiens; MDA-MB-231, MTT, 24 hours
Source text: Cell lines, cell culture, biochemical reagents, and antibodies. MiaPaCa-2, AsPC-1, and Panc-1 human pancreatic cancer cells, MCF-7 and MDA-MB-231 breast cancer cells, SCC4 and SCC2059 oral cancer cells, PC-3 and LNCaP prostate cancer cells, H157, H460, H1975, PC-9 and H1650 lung cancer cells were obtained from the American Type Culture Collection (ATCC, Manassas, Va.). All these cells were maintained in recommended growth medium (RPMI 1640 or DMEM) supplemented with 10% fetal bovine serum (FBS) (Invitrogen, Carlsbad, Calif., USA) and antibiotics at 37° C. in a humidified incubator containing 5% CO2. For SILAC experiments, PC-9 cells were grown in SILAC DMEM medium (Thermo Fisher) supplemented with 10% dialyzed FBS and 100 μg/mL each of unlabeled L-arginine and L-lysine (light medium) or ^13C/^15N stable isotope-labeled L-arginine and L-lysine (heavy medium). […]
Cell viability assays. Drug effects on cell viability was assessed by 3-(4,5-dimethylthiazol-2-yl)-2,5-diphenyltetrazolium bromide ([…]) assays. […] The medium was then removed from each well and replaced with DMSO to dissolve the reduced MTT dye for subsequent colorimetric measurement of absorbance at 560 nm. Cell viabilities are expressed as percentages of viable cells relative to the corresponding vehicle-treated control group.

[2] = test system: pyruvate kinase activity in PC-9 cells; assay: Pyruvate kinase activity assay in PC-9 cells; format: cell-based, human; settings: 0.25 μM, 6 hours, relative to vehicle control
Method: Pyruvate kinase activity assays. PC-9 cells were seeded into 6 cm dishes at a concentration of 5×10^5 cells/mL. After 24 hours, cells were treated with 0.25 μM compound 1 or DMSO for 6 hours. The pyruvate kinase activity of compound 1-treated PC-9 and vehicle control cells was measured by using a commercial colorimetric assay kit from BioVision (Milpitas, Calif., USA) according to the manufacturer's protocol. In addition, to verify the specificity of compound 1 toward PKM2 versus PKM1, the inhibition of the kinase activity of recombinant PKM1 (SRP0415, Sigma-Aldrich) and recombinant PKM2 (SAE0021, Sigma-Aldrich) by compound 1 was conducted using the aforementioned assay kit.

[3] = test system: 246 different kinases (activity) and 143 different kinases (substrate binding); assay: Kinase profiling analysis (Life Technologies' SelectScreen Profiling Service); format: biochemical; settings: 500 nM; activity of 246 kinases, substrate binding to 143 kinases
Method: To shed light onto its potential target, compound 1 was submitted to a commercial vendor for kinase profiling analysis (Life Technologies' SelectScreen Profiling Service), in which the inhibitory effects of compound 1 at 500 nM on the activity of 246 different kinases as well as substrate binding to 143 different kinases were tested.

[4] = biological target: PKM2 (Homo sapiens, UniProt P14618); assay: Covalent adduct formation with recombinant PKM2 (anti-compound 1 antibodies, nanoLC-MS/MS site mapping); format: binding; set-up: made in house
PKM2, sequence (P14618 whole entry): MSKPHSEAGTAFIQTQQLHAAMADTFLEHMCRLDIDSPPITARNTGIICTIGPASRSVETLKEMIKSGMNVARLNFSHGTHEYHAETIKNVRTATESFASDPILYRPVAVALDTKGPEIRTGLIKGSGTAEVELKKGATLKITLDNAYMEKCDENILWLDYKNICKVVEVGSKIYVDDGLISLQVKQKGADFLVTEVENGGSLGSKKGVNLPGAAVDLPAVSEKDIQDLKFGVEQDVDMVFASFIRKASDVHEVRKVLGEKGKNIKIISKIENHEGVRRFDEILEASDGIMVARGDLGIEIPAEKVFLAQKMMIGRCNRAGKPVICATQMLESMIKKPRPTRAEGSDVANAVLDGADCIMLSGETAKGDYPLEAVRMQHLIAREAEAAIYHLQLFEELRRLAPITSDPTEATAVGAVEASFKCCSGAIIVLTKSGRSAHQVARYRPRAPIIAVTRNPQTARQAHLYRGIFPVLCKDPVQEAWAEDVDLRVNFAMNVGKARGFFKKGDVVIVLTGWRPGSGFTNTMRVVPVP
Method: As this cell-based kinase assay could not rule out the involvement of PKM1, we examined the abilities of compound 1 to inhibit the kinase activity of recombinant PKM2 (SAE0021, Sigma-Aldrich) versus recombinant PKM1 (SRP0415, Sigma-Aldrich) using a commercial PKM assay kit. […] In brief, PC-9 cells were exposed to different concentrations of compound 2 in the presence of compound 1 (1 μM) for 1 hour, lysed, and the cell lysates were treated with biotin-azide, followed by streptavidin bead pulldown under the aforementioned conditions. […] The antigen of compound 1 was prepared by coupling this small molecule with cysteine residues of ovalbumin, which was then used for immunization in guinea pigs.
Preparation of anti-compound 1 antiserum. compound 1 was coupled to the cysteine thiolate in ovalbumin (OVA) via the propiolyl moiety under alkaline conditions by using the modifications to a published method. […]
As PKM2 has a total of 10 cysteine residues (NCBI reference sequence: NM_002654), we conducted proteomic analysis to identify which cysteine residues were covalently modified by compound 1. […] In general, the modification site assignment was considered reliable if the b and y ions flanking the implicated site could be detected, with mass shifts corresponding to a compound 1-modified cysteine (+516.1773 Da). […]

C#CC(=O)Nc1ccc(-n2nc(CCC(=O)NC)cc2-c2ccc(-c3ccc(C(F)(F)F)cc3)cc2)cc1 [compound 1, N-(4-(3-(3-(Methylamino)-3-oxopropyl)-5-(4′-(trifluoromethyl)-[1,1′-biphenyl]-4-yl)-1H-pyrazol-1-yl)phenyl)propiolamide]
pIC50 [1]: 7.00
pyruvate kinase activity in cells [2]: significantly reduced pyruvate kinase activity
inhibition of kinases in profiling panel [3]: none of the kinases examined was effectively inhibited
covalent adduct with recombinant PKM2 (anti-compound 1 antibodies) ([4]; Western blot, 4° C. for 6 hours): antibodies cross reacted with compound 1-treated PKM2
cysteine residues of PKM2 covalently modified ([4]; tryptic digestion, nanoLC-MS/MS): covalently coupled to the two cysteine residues Cys317 and Cys326
